Data on four compounds can be found in article PMC4524497 (Bioorganic & medicinal chemistry, 2015).

Some results are limits rather than exact numbers.

For series [1], the target named is T1, σ2 receptor (Rattus norvegicus, UniProt Q5U3Y7).
T1 sequence (Q5U3Y7 1-176): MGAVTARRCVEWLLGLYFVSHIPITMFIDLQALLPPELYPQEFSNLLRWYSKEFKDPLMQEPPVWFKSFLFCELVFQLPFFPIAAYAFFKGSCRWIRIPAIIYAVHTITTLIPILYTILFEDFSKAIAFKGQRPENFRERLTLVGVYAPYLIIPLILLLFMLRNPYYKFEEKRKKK
The series can be described thus: σ2 receptor binding assay with [^3H]DTG in the presence of. The conditions noted are these: for Ki: Ki-σ2, [^3H]DTG + 1 μM (+)-pentazocine, rat liver membranes, mean ± SEM.

Series [2] addresses T2, human VAChT (Homo sapiens, UniProt Q16572).
T2 sequence (Q16572 1-532): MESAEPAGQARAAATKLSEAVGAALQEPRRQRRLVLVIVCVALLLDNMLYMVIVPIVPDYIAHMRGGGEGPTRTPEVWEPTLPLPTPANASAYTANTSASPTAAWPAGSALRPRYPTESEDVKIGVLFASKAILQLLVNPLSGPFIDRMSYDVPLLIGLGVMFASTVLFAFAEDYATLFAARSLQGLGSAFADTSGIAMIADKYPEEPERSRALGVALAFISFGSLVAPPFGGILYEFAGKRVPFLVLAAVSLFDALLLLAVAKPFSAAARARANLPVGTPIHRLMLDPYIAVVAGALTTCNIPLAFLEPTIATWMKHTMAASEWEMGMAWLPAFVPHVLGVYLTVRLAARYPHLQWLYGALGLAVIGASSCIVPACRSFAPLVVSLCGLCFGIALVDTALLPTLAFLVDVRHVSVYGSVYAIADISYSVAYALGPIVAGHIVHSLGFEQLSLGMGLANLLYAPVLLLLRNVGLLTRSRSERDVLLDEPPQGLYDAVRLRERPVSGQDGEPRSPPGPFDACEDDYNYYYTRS
The series can be described thus: VAChT competitive binding assay with [^3H]vesamicol.

The conditions of series [3]: post-injection, human brain SPECT; cited from earlier work.
In series [4] the test system is VAChT. The conditions noted are these: brain of both NHP and human subjects; cited from earlier work.

With `O=C(c1ccc(F)cc1)C1CCN(C2Cc3c(cccc3OCCF)CC2O)CC1` (racemic) [Compound 18a, (1-(8-(2-Fluoroethoxy)-3-hydroxy-1,2,3,4-tetrahydronaphthalen-2-yl)piperidin-4-yl)(4-fluorophenyl)methanone], in series [1], the Ki was greater than 10 µM.

On to `O=C(c1ccc(F)cc1)C1CCN(C2Cc3c(cccc3OCCF)CC2O)CC1` (single isomer, unassigned; (-)) [(-)-18a, (-)-(1-(8-(2-Fluoroethoxy)-3-hydroxy-1,2,3,4-tetrahydronaphthalen-2-yl)piperidin-4-yl)(4-fluorophen-yl)-methanone], for which the “selectivity for VAChT versus σ receptors” value in series [2] is recorded as > 10,000 fold. Also, the Ki in series [1] is greater than 10 µM. Also, the “VAChT/ σ2” value in series [1] (selectivity ratio) is listed as >10,000.

`OC1Cc2cccc([123I])c2CC1N1CCC(c2ccccc2)CC1` (single isomer, unassigned; (-)) [[^123I]IBVM, (-)-5-[^123I]iodo-benzovesamicol]: the “time required for quantification of peak uptake in the target regions” value in series [3] is on record as “at least 6 hr”.

Take `O[C@@H]1Cc2cccc(OCC[18F])c2C[C@H]1N1CCC(c2ccccc2)CC1` [[^18F]FEOBV, [^18F]fluoroethoxy-benzovesamicol]: the “delayed equilibrium of brain kinetics” value in series [4] is given as greater than 360 min p.i.
